# Data published in patent US9023852B2, “1, 2, 4-thiadiazol-5-ylpiperazine derivatives useful in the treatment of neurodegenerative diseases” (Remynd NV, priority 2011, dated 2015).
# What was measured:
# [1] = Microsomal stability assay (intrinsic clearance), rat liver microsomes; type: in vitro ADME; conditions: rat in vitro microsomes, second value of Hum/Rat pair
# Protocol: (§1) Microsomal Stability Testing—Assay Description
# (§2) The microsomal stability assay measures the rate of disappearance of a test compound from an incubation containing human or animal liver microsomes and metabolic cofactors (typically NADPH). The assay is primarily used for ranking the relative CYP-mediated metabolism propensities of compounds within a chemical series and as a guide to selecting sufficiently stable compounds for pharmacokinetics and pharmacodynamics experiments. [In addition to CYPs, microsomally located enzymes which also make use of NADPH (such as […]) and those which require no cofactors (such as carboxylesterases) are active.]
# (§3) Incubations are performed in 96-well deep-well plates with a final incubation volume of 600 μL. Incubations contain (finally) 1-2 μM test compound, 0.5 mg/mL liver microsomes (typically human, rat or mouse) and NADPH regenerating system. 50 μL aliquots are removed after 1, 3, 6, 9, 15, 25, 35 and 45 minutes and quenched in 150 μL acetonitrile containing internal standard. Samples are then cooled and centrifuged before analysis by LC-MS/MS.
# (§4) Log peak area ratio (test compound peak area/internal standard peak area) is plotted against incubation time and a linear fit made to the data with emphasis upon the initial rate of compound disappearance. The slope of the fit is then used to calculate the intrinsic clearance: Clint(μL/min/mg)=−slope(min^−1)*1000/[protein concentration (mg/mL)]
# [2] = Microsomal stability assay (intrinsic clearance), human liver microsomes; type: in vitro ADME; conditions: human in vitro microsomes, first value of Hum/Rat pair
# Protocol: as §1, §2, §3, §4
# [3] = tested on: M17—3TAU(P301L) cells; assay: Neuroblastoma tauopathy model: inhibition of TAU-induced cytotoxicity (LDH); type: cell-based; conditions: Homo sapiens, 168 h; inhibition of TAU-induced toxicity (LDH), 7 days differentiation with retinoic acid
# Summary of the method: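 BE-M17 neuroblastoma cells stably expressing human TAU-P301L, differentiated with RA (2.5 μM in added medium) for 7 days at 37 °C with compounds at a range of concentrations. Cytotoxicity as supernatant LDH over total LDH (Cytotox 96); EC50 from dose-dependent inhibition curve.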
Compound,microsomal CLint [1] [µL/min/mg],microsomal CLint [2] [µL/min/mg],EC50 [3] [nM]
"Cc1ccc(-c2nsc(N3CCN(Cc4ccc5c(c4)OCO5)CC3)n2)cc1 [Example 2, 1-Benzo[1,3]dioxol-5-ylmethyl-4-(3-p-tolyl-[1,2,4]thiadiazol-5-yl)-piperazine]",48,19,587
"Fc1cccc(-c2nsc(N3CCN(CCc4ccc(Cl)cc4)CC3)n2)c1 [Example 88, 1-[2-(4-Chloro-phenyl)-ethyl]-4-[3-(3-fluoro-phenyl)-[1,2,4]thiadiazol-5-yl]-piperazine]",23,12,121
O=S(=O)(c1ccc(OC(F)(F)F)cc1)N1CCN(c2nc(Cc3ccc(F)cc3)ns2)CC1 [reference compound],103,46,
Fc1ccc(Cc2nsc(N3CCN(Cc4ccc5c(c4)OCO5)CC3)n2)cc1 [reference compound],482,39,
